Assays:
Format in all cases: in vivo
[1] = tested on: Lolium perenne (LOLPE); test: Example B pre-emergence herbicidal test, LOLPE; details: Lolium perenne, 312 h, rate 250 g/ha, evaluated after 13 days, 100=total damage to plant, 0=no damage to plant
Summary of the method: (§1)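 Pre-emergence spray one day after sowing; vehicle acetone/water (50:50), 0.5% Tween 20. Percent damage (0 = no effect, 100 = plant killed) recorded 13 days later.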

[2] = tested on: Echinochloa crus-galli (ECHCG); test: Example B pre-emergence herbicidal test, ECHCG; details: Echinochloa crus-galli, 312 h, rate 250 g/ha, evaluated after 13 days, 100=total damage to plant, 0=no damage to plant
Summary of the method: as §1

[3] = tested on: Avena fatua (AVEFA); test: Example B pre-emergence herbicidal test, AVEFA; details: Avena fatua, 312 h, rate 250 g/ha, evaluated after 13 days, 100=total damage to plant, 0=no damage to plant
Summary of the method: as §1

[4] = tested on: Avena fatua (AVEFA); test: Example B post-emergence herbicidal test, AVEFA; details: Avena fatua, 312 h, rate 250 g/ha, evaluated after 13 days, scale 0-100, read-out: Post-emergence activity AVEFA (100=total damage to plant; 0=no damage to plant)
Summary of the method: (§2)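 Plants grown from seed in standard soil for 8 days in a glasshouse (24/16 °C day/night, 14 h light, 65% humidity), then sprayed with an aqueous solution from the active ingredient formulated in acetone/water (50:50) with 0.5% Tween 20. Damage scored after 13 days, 0 (none) to 100 (total).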

[5] = tested on: Alopecurus myosuroides (ALOMY); test: Example B post-emergence herbicidal test, ALOMY; details: Alopecurus myosuroides, 312 h, rate 250 g/ha, evaluated after 13 days, scale 0-100, read-out: Post-emergence activity ALOMY (100=total damage to plant; 0=no damage to plant)
Summary of the method: as §2

[6] = tested on: Alopecurus myosuroides (ALOMY); test: Example B pre-emergence herbicidal test, ALOMY; details: Alopecurus myosuroides, 312 h, rate 250 g/ha, evaluated after 13 days, 100=total damage to plant, 0=no damage to plant
Summary of the method: as §1

[7] = tested on: Echinochloa crus-galli (ECHCG); test: Example B post-emergence herbicidal test, ECHCG; details: Echinochloa crus-galli, 312 h, rate 250 g/ha, evaluated after 13 days, scale 0-100, read-out: Post-emergence activity ECHCG (100=total damage to plant; 0=no damage to plant)
Summary of the method: as §2

[8] = tested on: Lolium perenne (LOLPE); test: Example B post-emergence herbicidal test, LOLPE; details: Lolium perenne, 312 h, rate 250 g/ha, evaluated after 13 days, scale 0-100, read-out: Post-emergence activity LOLPE (100=total damage to plant; 0=no damage to plant)
Summary of the method: as §2

Cc1cc(C)c(C2C(=O)CC(CC3CCN(C(=O)c4cc(C)nn4C)CC3)C2=O)c(C)c1 (stereo not shown) [Compound T121]
pest or weed control at 250 g/ha [1]: 80%
pest or weed control at 250 g/ha [2]: 90%
pest or weed control at 250 g/ha [3]: 60%
pest or weed control at 250 g/ha [4]: 100%
pest or weed control at 250 g/ha [5]: 80%
pest or weed control at 250 g/ha [6]: 30%
pest or weed control at 250 g/ha [7]: 80%
pest or weed control at 250 g/ha [8]: 90%

Cc1cccc(C(=O)N2CCC(CC3CC(=O)C(c4c(C)cc(C)cc4C)C3=O)CC2)c1 (stereo not shown) [Compound T122]
pest or weed control at 250 g/ha [1]: 50%
pest or weed control at 250 g/ha [2]: 70%
pest or weed control at 250 g/ha [3]: 20%
pest or weed control at 250 g/ha [4]: 30%
pest or weed control at 250 g/ha [5]: 60%
pest or weed control at 250 g/ha [6]: 20%
pest or weed control at 250 g/ha [7]: 70%
pest or weed control at 250 g/ha [8]: 80%

COCCOC(=O)N1CCC(CC2CC(=O)C(c3c(C)cc(C)cc3C)C2=O)CC1 (stereo not shown) [Compound T123]
pest or weed control at 250 g/ha [1]: 60%
pest or weed control at 250 g/ha [2]: 60%
pest or weed control at 250 g/ha [3]: 60%
pest or weed control at 250 g/ha [4]: 90%
pest or weed control at 250 g/ha [5]: 80%
pest or weed control at 250 g/ha [6]: 60%
pest or weed control at 250 g/ha [7]: 60%
pest or weed control at 250 g/ha [8]: 70%

Cc1cc(C)c(C2C(=O)CC(CC3CCN(C(=O)c4cn(C)nc4C(F)F)CC3)C2=O)c(C)c1 (stereo not shown) [Compound T124]
pest or weed control at 250 g/ha [1]: 20%
pest or weed control at 250 g/ha [2]: 30%
pest or weed control at 250 g/ha [3]: 10%
pest or weed control at 250 g/ha [4]: 30%
pest or weed control at 250 g/ha [5]: 30%
pest or weed control at 250 g/ha [6]: 20%
pest or weed control at 250 g/ha [7]: 20%
pest or weed control at 250 g/ha [8]: 20%

Cc1cc(C)c(C2C(=O)CC(CC3CCN(C(=O)c4ccsc4)CC3)C2=O)c(C)c1 (stereo not shown) [Compound T126]
pest or weed control at 250 g/ha [1]: 60%
pest or weed control at 250 g/ha [2]: 50%
pest or weed control at 250 g/ha [3]: 40%
pest or weed control at 250 g/ha [4]: 70%
pest or weed control at 250 g/ha [5]: 50%
pest or weed control at 250 g/ha [6]: 30%
pest or weed control at 250 g/ha [7]: 60%
pest or weed control at 250 g/ha [8]: 70%

Cc1cc(C)c(C2C(=O)CC(CC3C[C@@H]4O[C@H]3[C@@H]3C(=O)N(C)C(=O)[C@@H]34)C2=O)c(C)c1 (stereo partly shown) [Compound T128]
pest or weed control at 250 g/ha [1]: 50%
pest or weed control at 250 g/ha [2]: 60%
pest or weed control at 250 g/ha [3]: 40%
pest or weed control at 250 g/ha [4]: 90%
pest or weed control at 250 g/ha [5]: 40%
pest or weed control at 250 g/ha [6]: 70%
pest or weed control at 250 g/ha [7]: 50%
pest or weed control at 250 g/ha [8]: 50%

Cc1cc(C)c(C2C(=O)CC(CC3OCCO3)C2=O)c(C)c1 (stereo not shown) [Compound T130]
pest or weed control at 250 g/ha [1]: 100%
pest or weed control at 250 g/ha [2]: 30%
pest or weed control at 250 g/ha [3]: 10%
pest or weed control at 250 g/ha [4]: 70%
pest or weed control at 250 g/ha [5]: 60%
pest or weed control at 250 g/ha [6]: 70%
pest or weed control at 250 g/ha [7]: 60%
pest or weed control at 250 g/ha [8]: 90%

Cc1cc(C)c(C2C(=O)CC(CC3CCN(C(=O)C(F)(F)C(F)F)C3)C2=O)c(C)c1 (stereo not shown) [Compound T131]
pest or weed control at 250 g/ha [1]: 90%
pest or weed control at 250 g/ha [2]: 100%
pest or weed control at 250 g/ha [3]: 70%
pest or weed control at 250 g/ha [4]: 90%
pest or weed control at 250 g/ha [5]: 90%
pest or weed control at 250 g/ha [6]: 70%
pest or weed control at 250 g/ha [7]: 90%
pest or weed control at 250 g/ha [8]: 100%

Cc1cc(-c2ccc(Cl)cc2F)cc(C)c1C1C(=O)C/C(=C\C2CCOCC2)C1=O (stereo not shown) [Compound T132]
pest or weed control at 250 g/ha [1]: 70%
pest or weed control at 250 g/ha [2]: 90%
pest or weed control at 250 g/ha [3]: 70%
pest or weed control at 250 g/ha [4]: 80%
pest or weed control at 250 g/ha [5]: 70%
pest or weed control at 250 g/ha [6]: 20%
pest or weed control at 250 g/ha [7]: 100%
pest or weed control at 250 g/ha [8]: 70%

Cc1cc(-c2ccc(Cl)cc2F)cc(C)c1C1C(=O)C/C(=C\C2CCOC2)C1=O (stereo not shown) [Compound T135]
pest or weed control at 250 g/ha [1]: 40%
pest or weed control at 250 g/ha [2]: 60%
pest or weed control at 250 g/ha [3]: 30%
pest or weed control at 250 g/ha [4]: 80%
pest or weed control at 250 g/ha [5]: 80%
pest or weed control at 250 g/ha [6]: 0%
pest or weed control at 250 g/ha [7]: 90%
pest or weed control at 250 g/ha [8]: 70%

Cc1cc(Br)cc(C)c1C1C(=O)CC(CC2CCOCC2)C1=O (stereo not shown) [Compound T138]
pest or weed control at 250 g/ha [1]: 90%
pest or weed control at 250 g/ha [2]: 90%
pest or weed control at 250 g/ha [3]: 70%
pest or weed control at 250 g/ha [4]: 90%
pest or weed control at 250 g/ha [5]: 90%
pest or weed control at 250 g/ha [6]: 80%
pest or weed control at 250 g/ha [7]: 70%
pest or weed control at 250 g/ha [8]: 90%

Source: US9096560B2, “5-heterocyclylalkyl-3-hydroxy-2-phenylcyclopent-2-enones as herbicides” (Syngenta Limited, priority 2008, dated 2015)
